Experimental data from US12384800B2, “Antitumoral compounds” (priority 2017, dated 2025).

Legend:
H460 tumors = experiment: Human lung (NSCLC) xenograft, tumor volume
Experimental: (§7) Female athymic nu/nu mice (Harlan Laboratories Models, S.L. Barcelona, Spain or Envigo, Spain) were utilized for all experiments. Animal were housed in individually ventilated cages Sealsafe® Plus, Techniplast S.P.A.), up to ten per cage on a 12-hour light-dark cycle at 21-23° C. and 40-60% humidity. […] Animals were acclimated for at least 5 days prior to tumor implantation with a tumor cell suspension.
H460 cells were maintained in vitro at 37° C. with 5% CO2 in Dulbecco's Modified Eagle's Medium (Sigma-Aldrich, Co). Culture cells were passaged every 3 to 5 days upon reaching confluence. Each animal was subcutaneously implanted (on the right flank using 26G needle and a 1 cc syringe) at 4-6 weeks of age with 5×10^6 H460 cells suspended in 0.05 mL of a solution consisting of 50% Matrigel® (Corning Incorporated Life Sciences) and 50% medium without serum or antibiotics.
(§8) Treatment tolerability was assessed by monitoring body weight evolution, clinical signs of systemic toxicity, as well as evidences of local damage in the injection site.
(§9) In Xenograft Studies with Other Cell Lines: • Tumor volume was calculated using the equation (a·b^2)/2, where a: length (longest diameter) and b: width (shortest diameter) were measured in mm by using digital caliper (Fowler Sylvac, S235PAT).
(§10) Treatments producing >20% lethality and/or 20% net body weight loss were considered toxic.
Tables and figures summarize the data obtained from complete experimental groups, i.e. those groups keeping the initial number of animals, n=8-10.

MDA-MB-231 tumors = experiment: Human breast xenograft, tumor volume
Experimental: as §7
MDA-MB-231 cells were maintained in vitro at 37° C. with 5% CO2 in Dulbecco's Modified Eagle's Medium (Sigma-Aldrich, Co). Culture cells were passaged every 3 to 5 days upon reaching confluence.
as §8, §9, §10

HT1080 tumors = experiment: Human fibrosarcoma xenograft, total diameter (tumor + leg)
Experimental: as §7
HT1080 cells were maintained in vitro at 37° C. with 5% CO2 in Minimum Essential Medium Eagle (MEME) (Sigma-Aldrich, Co). Each animal was orthotopically implanted into gastroecnemius muscle by an intramuscular injection using a 26G needle and a 1 cc syringe at 4-6 weeks of age, with 10×10^6 HT1080 cells, suspended in serum free medium, without antibiotics.
as §8
In xenograft studies with HT1080 cell line: • Total diameter (tumor+leg) measurements were determined by using digital caliper (Fowler Sylvac, S235PAT).
as §10

HGC27 tumors = experiment: Human gastric xenograft, tumor volume
Experimental: as §7
HGC27 cells were maintained in vitro at 37° C. with 5% CO2 in Iscove's Modified Dulbecco's Medium (Sigma Aldrich, Co). Culture cells were passage every 3 to 5 days on reaching confluence. Each animal was subcutaneously implanted (on the right flank using 26G needle and a 1 cc syringe) at 4-6 weeks of age with 5×10^6 HGC-27 cells suspended in 0.05 mL of a solution consisting of 50% Matrigel® (Corning Incorporated Life Sciences), 50% medium without serum or antibiotics.
as §8, §9, §10

A2780 tumors = experiment: Human ovarian xenograft, tumor volume
Experimental: as §7
Culture cells were passaged every 3 to 5 days upon reaching confluence. Each animal was subcutaneously implanted (on the right flank using 26G needle and a 1 cc syringe) at 4-6 weeks of age with 10×10^6 A2780 cells suspended in 0.05 mL of a solution consisting of 50% Matrigel® (Corning Incorporated Life Sciences) and 50% medium without serum or antibiotics.
as §8, §9, §10

[1] = test system: MDA-MB-231 cells (breast adenocarcinoma); experiment: cells; conditions: MDA-MB-231, SRB; for GI50: 72 hours treatment; for TGI: total cell growth inhibition; for TGI / CC50: 72 hours; for CC50: read-out: LC50, 50% net cell killing
From the text: (§1) The aim of this assay is to evaluate the in vitro cytostatic (ability to delay or arrest tumor cell growth) or cytotoxic (ability to kill tumor cells) activity of the samples being tested.
(§2) A colorimetric assay, using sulforhodamine B (SRB) reaction has been adapted to provide a quantitative measurement of cell growth and viability (following the technique described by Skehan et al. J. Natl. Cancer Inst. 1990, 82, 1107-1112). Another colorimetric assay based on 3-(4,5-Dimethylthiazol-2-yl)-2,5-diphenyltetrazolium bromide (MTT) reduction to a purple formazan has been also used to assess the antiproliferative activity (following the technique described by Mosmann et al. J. Immunol. Meth. 1983, 65, 55-63).
(§3) These forms of assays employ 96-well cell culture microplates following the standards of the American National Standards Institute and the Society for Laboratory Automation and Screening (ANSI SLAS 1-2004 (R2012) Oct. 12, 2011. All the cell lines used in this study were obtained from the American Type Culture Collection (ATCC) and derive from different types of human cancer.
(§4) A549, HT29, MDA-MB-231 and PSN1 cells were maintained in Dulbecco's Modified Eagle Medium (DMEM) while PC-3 and 22Rv1 cells were maintained in Roswell Park Memorial Institute Medium (RPMI). All cell lines were supplemented with 10% Fetal Bovine Serum (FBS), 2 mM L-glutamine, 100 U/mL penicillin, and 100 […] at 37° C., 5% CO2 and 98% humidity. For the experiments, cells were harvested from subconfluent cultures using trypsinization and resuspended in fresh medium before counting and plating.
(§5) A549, HT29, MDA-MB-231 and PSN1 cells were seeded in 96 well microtiter plates, at 5000 cells per well in aliquots of 150 μL, and allowed to attach to the plate surface for 18 hours (overnight) in drug free medium. After that, one control (untreated) plate of each cell line was fixed (as described below) and used for time zero reference value. Culture plates were then treated with test compounds (50 μL aliquots of 4× stock solutions in complete culture medium plus 4% DMSO) using ten ⅖ serial dilutions (concentrations ranging from 10 to 0.003 μg/mL) and triplicate cultures (1% final concentration in DMSO). After 72 hours treatment, the antitumor effect was measured by using the SRB methodology: Briefly, cells were washed twice with PBS, fixed for 15 min in 1% glutaraldehyde solution at room temperature, rinsed twice in PBS, and stained in 0.4% SRB solution for 30 min at room temperature. Cells were then rinsed several times with 1% acetic acid solution and air-dried at room temperature.
(§6) Effects on cell growth and survival were estimated by applying the NCI algorithm (Boyd M R and Paull K D. Drug Dev. Res. 1995, 34, 91-104). The values obtained in triplicate cultures were fitted by nonlinear regression to a four-parameters logistic curve by nonlinear regression analysis.

[2] = test system: PSN1 cells (pancreas adenocarcinoma); experiment: cells; conditions: PSN1, SRB; for GI50: 72 hours treatment; for TGI: total cell growth inhibition; for TGI / CC50: 72 hours; for CC50: read-out: LC50, 50% net cell killing
From the text: as §1, §2, §3, §4, §5, §6

[3] = test system: A549 cells (lung carcinoma, NSCLC); experiment: cells; conditions: A549, SRB; for GI50: 72 hours treatment; for TGI: total cell growth inhibition; for TGI / CC50: 72 hours; for CC50: read-out: LC50, 50% net cell killing
From the text: as §1, §2, §3, §4, §5, §6

[4] = test system: HT29 cells (colorectal adenocarcinoma); experiment: cells; conditions: HT29, SRB; for GI50: 72 hours treatment; for TGI: total cell growth inhibition; for TGI / CC50: 72 hours; for CC50: read-out: LC50, 50% net cell killing
From the text: as §1, §2, §3, §4, §5, §6

COc1c(C)cc2c(c1O)[C@@H]1[C@@H]3[C@@H]4SC[C@]5(N[C@@H](CN)Cc6c5[nH]c5ccccc65)C(=O)OC[C@@H](c5c6c(c(C)c(OC(C)=O)c54)OCO6)N3[C@@H](O)[C@H](C2)N1C [Compound 12-R]
Median Tumor Volume (H460 tumors; Day 2): 410.7 mm^3
Median Tumor Volume (H460 tumors; Day 5): 796.7 mm^3
Median Tumor Volume (H460 tumors; Day 7): 1167.9 mm^3
Median Tumor Volume (H460 tumors; Day 9): 1360.3 mm^3
Median Tumor Volume (H460 tumors; Day 12): 1666.0 mm^3
Median Tumor Volume (H460 tumors; Day 14): 2025.0 mm^3
Median Tumor Volume (MDA-MB-231 tumors; Day 2): 223.0 mm^3
Median Tumor Volume (MDA-MB-231 tumors; Day 5): 296.1 mm^3
Median Tumor Volume (MDA-MB-231 tumors; Day 7): 378.3 mm^3
Median Tumor Volume (MDA-MB-231 tumors; Day 9): 472.7 mm^3
Median Tumor Volume (MDA-MB-231 tumors; Day 12): 609.9 mm^3
Median Tumor Volume (MDA-MB-231 tumors; Day 14): 782.5 mm^3
Median Tumor Volume (MDA-MB-231 tumors; Day 16): 972.4 mm^3
Median Tumor Volume (MDA-MB-231 tumors; Day 19): 1211.0 mm^3
Median Tumor Volume (MDA-MB-231 tumors; Day 21): 1463.4 mm^3
Median Tumor Volume (MDA-MB-231 tumors; Day 23): 1756.5 mm^3
Median Tumor Volume (MDA-MB-231 tumors; Day 26): 2028.6 mm^3
Total diameter (tumor + leg) (HT1080 tumors; Day 2): 8.9 mm
Total diameter (tumor + leg) (HT1080 tumors; Day 5): 8.8 mm
Total diameter (tumor + leg) (HT1080 tumors; Day 7): 9.5 mm
Total diameter (tumor + leg) (HT1080 tumors; Day 9): 9.5 mm
Total diameter (tumor + leg) (HT1080 tumors; Day 12): 11.0 mm
Total diameter (tumor + leg) (HT1080 tumors; Day 14): 11.7 mm
Total diameter (tumor + leg) (HT1080 tumors; Day 16): 12.9 mm
Total diameter (tumor + leg) (HT1080 tumors; Day 19): 13.5 mm
Total diameter (tumor + leg) (HT1080 tumors; Day 21): 15.5 mm
Total diameter (tumor + leg) (HT1080 tumors; Day 23): 18.0 mm
Median Tumor Volume (HGC27 tumors; Day 2): 413.3 mm^3
Median Tumor Volume (HGC27 tumors; Day 5): 809.1 mm^3
Median Tumor Volume (HGC27 tumors; Day 7): 1261.5 mm^3
Median Tumor Volume (HGC27 tumors; Day 9): 1589.5 mm^3
Median Tumor Volume (HGC27 tumors; Day 12): 2017.9 mm^3
Median Tumor Volume (HGC27 tumors; Day 14): 2034.9 mm^3
Median Tumor Volume (A2780 tumors; Day 2): 302.8 mm^3
Median Tumor Volume (A2780 tumors; Day 5): 786.5 mm^3
Median Tumor Volume (A2780 tumors; Day 7): 1113.3 mm^3
Median Tumor Volume (A2780 tumors; Day 9): 1490.6 mm^3
Median Tumor Volume (A2780 tumors; Day 12): 2025.00 mm^3
Median Tumor Volume (A2780 tumors; Day 14): 2025.00 mm^3

COc1ccc2[nH]c3c(c2c1)C[C@H](C(=O)O)N[C@]31CS[C@@H]2c3c(OC(C)=O)c(C)c4c(c3[C@H](COC1=O)N1[C@@H]2[C@H]2c3c(cc(C)c(OC)c3O)C[C@@H]([C@@H]1C#N)N2C)OCO4 [Compound 28-R, reference compound]
GI50 [1]: 19.1 nM
TGI [1]: 3.22E−08 Molar
CC50 [1]: 91.9 nM
GI50 [2]: 21.5 nM
TGI [2]: 3.58E−08 Molar
CC50 [2]: 66.8 nM
GI50 [3]: 167 nM
TGI [3]: 3.58E−07 Molar
CC50 [3]: > 1190 nM
GI50 [4]: 31 nM
TGI [4]: 3.34E−08 Molar
CC50 [4]: > 1190 nM

COc1ccc2[nH]c3c(c2c1)C[C@@H](C(=O)O)N[C@]31CS[C@@H]2c3c(OC(C)=O)c(C)c4c(c3[C@H](COC1=O)N1[C@@H]2[C@H]2c3c(cc(C)c(OC)c3O)C[C@@H]([C@@H]1C#N)N2C)OCO4 [Compound 28-S, reference compound]
GI50 [1]: 167 nM
TGI [1]: 2.51E−07 Molar
CC50 [1]: 394 nM
GI50 [2]: 251 nM
TGI [2]: 3.94E−07 Molar
CC50 [2]: 692 nM
GI50 [3]: 489 nM
TGI [3]: >1.19E−06 Molar
CC50 [3]: > 1190 nM
GI50 [4]: 251 nM
TGI [4]: 3.46E−07 Molar
CC50 [4]: 633 nM

COc1c(C)cc2c(c1O)[C@@H]1[C@@H]3[C@@H]4SC[C@]5(NCCc6c5oc5ccccc65)C(=O)OC[C@@H](c5c6c(c(C)c(OC(C)=O)c54)OCO6)N3[C@@H](C#N)[C@H](C2)N1C [Compound 31]
GI50 [1]: 8.89 nM
TGI [1]: 1.70E−08 Molar
CC50 [1]: 35.3 nM
GI50 [2]: 6.8 nM
TGI [2]: 1.57E−08 Molar
CC50 [2]: 43.1 nM
GI50 [3]: 19.6 nM
TGI [3]: 2.09E−08 Molar
CC50 [3]: 23.5 nM
GI50 [4]: 10.5 nM
TGI [4]: 1.57E−08 Molar
CC50 [4]: > 131 nM

COc1ccc2oc3c(c2c1)CCN[C@]31CS[C@@H]2c3c(OC(C)=O)c(C)c4c(c3[C@H](COC1=O)N1[C@@H]2[C@H]2c3c(cc(C)c(OC)c3O)C[C@@H]([C@@H]1C#N)N2C)OCO4 [Compound 34]
GI50 [1]: 45.3 nM
TGI [1]: 7.67E−08 Molar
CC50 [1]: 112 nM
GI50 [2]: 54.1 nM
TGI [2]: 5.91E−08 Molar
CC50 [2]: > 126 nM
GI50 [3]: 59.1 nM
TGI [3]: 8.05E−08 Molar
CC50 [3]: > 126 nM
GI50 [4]: 54.1 nM
TGI [4]: 8.55E−08 Molar
CC50 [4]: 125 nM

COc1c(C)cc2c(c1O)[C@@H]1[C@@H]3[C@@H]4SC[C@]5(N[C@@H](CO)Cc6c5oc5ccccc65)C(=O)OC[C@@H](c5c6c(c(C)c(OC(C)=O)c54)OCO6)N3[C@@H](C#N)[C@H](C2)N1C [Compound 38-R]
GI50 [1]: 0.453 nM
TGI [1]: 8.43E−10 Molar
CC50 [1]: 2.01 nM
GI50 [2]: 0.654 nM
TGI [2]: 9.94E−10 Molar
CC50 [2]: 1.76 nM
GI50 [3]: 0.654 nM
TGI [3]: 1.04E−09 Molar
CC50 [3]: > 126 nM
GI50 [4]: 0.541 nM
TGI [4]: 5.91E−10 Molar
CC50 [4]: > 126 nM

COc1c(C)cc2c(c1O)[C@@H]1[C@@H]3[C@@H]4SC[C@]5(N[C@H](CO)Cc6c5oc5ccccc65)C(=O)OC[C@@H](c5c6c(c(C)c(OC(C)=O)c54)OCO6)N3[C@@H](C#N)[C@H](C2)N1C [Compound 38-S]
GI50 [1]: 2.52 nM
TGI [1]: 4.28E−09 Molar
CC50 [1]: 7.8 nM
GI50 [2]: 5.03 nM
TGI [2]: 8.18E−09 Molar
CC50 [2]: 15.1 nM
GI50 [3]: 8.05 nM
TGI [3]: 8.55E−09 Molar
CC50 [3]: 9.44 nM
GI50 [4]: 4.53 nM
TGI [4]: 7.05E−09 Molar
CC50 [4]: > 126 nM
